Experimental data as given in patent US20240246960A1 (adMare Therapeutics Society, priority 2021, published 2024).

Assays:
[1] = Pharmacokinetic study in mice (IV, PO); format: in vivo, mice (C57BL/6); settings: Mouse Plasma; for AUC(0-t) / half-life / AUC(0-inf) / Cmax / Cmax at 5 min: female, C57BL/6; for AUC(0-inf): read-out: AUCINF—obs; for Cmax: read-out: Cmax (5 min)
Protocol: Pharmacokinetic analysis of compounds was conducted following bolus intravenous (IV) or bolus oral (PO) gavage in mice. Female mice (C57BL/6) in the 17-26 g range were weighed, and then administered an individually prescribed dose volume based on body weight of formulated compound via the intravenous (IV; tail vein) or oral gavage (PO) route (IV 5 mL/kg; PO 10 mL/kg). At selected timepoints post administration, blood was collected into vials with anticoagulant, processed for plasma by centrifugation, and then kept frozen ([…]) until analysis.
(§1) The in-vivo study plasma samples were analyzed using Ultra Performance Liquid Chromatography (UPLC) with tandem mass spectrometry (MS/MS) detection in multiple reaction monitoring (MRM) mode. A generic bioanalytical method involving plasma sample extraction and cleanup by protein precipitation with acetonitrile was used followed by UPLC-MS/MS analysis.
(§2) A brief example of a generic bioanalytical UPLC-MS/MS method used for analysis of compounds in the in-vivo study plasma samples is as follows. Plasma samples were spiked with internal standard prior to extraction and cleanup by protein precipitation with ice cold acetonitrile containing 0.1% (v/v) ammonium hydroxide at a ratio of 3:1 (solvent:plasma) and centrifuged at 18213 rcf for 15 minutes at 4° C. to pellet precipitates. Aliquots of supernatants were transferred to a 96-well plate and evaporated to dryness at 40° C. under a stream of nitrogen gas. Samples were reconstituted in 50:50 acetonitrile/10 mM ammonium acetate buffer pH 8, mixed thoroughly and analyzed using Ultra Performance Liquid Chromatography (UPLC) with tandem mass spectrometry (MS/MS) detection in multiple reaction monitoring (MRM) mode. Matrix-matched calibration standards and quality control (QC) samples were prepared in naïve C57Bl/6 mouse plasma. The UPLC column used was Waters Acquity UPLC BEH C18 1.7 um, 2.1 mm×50 mm (with guard column). The UPLC mobile phase consisted of: Mobile phase A: 10 mM ammonium acetate in Water pH 8, and Mobile phase B: Acetonitrile. Separation was accomplished with a linear gradient of 5% mobile phase B to 95% mobile phase B in 2 min, and a flow rate of 0.35 mL/min. The MS/MS data acquisition was accomplished using 3 MRM Transitions in ESI+ mode. Parent ion mass 508.37 m/z-to-Daughter ions (m/z) 117.05, 232.13 and 270.22. The quantitation of concentrations in test samples was achieved by matrix-matched calibration with normalization using an internal standard. Data acquisition and analysis were performed using Waters MassLynx software with TargetLynx application manager.
(§3) Estimation of PK parameters was performed using independent noncompartmental model method by PHOENIX WinNonlin software.

[2] = Pharmacokinetic study in dogs (IV, PO); format: in vivo, Beagle dogs; settings: Table C, Dog Plasma; for AUC(0-t) / Cmax at 5 min / half-life / AUC(0-inf): male, Beagle; for AUC(0-inf): read-out: AUCINF—obs
Protocol: Pharmacokinetic studies were conducted to estimate plasma concentrations obtained after oral gavage (PO) and intravenous (IV) single administration of compounds administered to separate groups of male Beagle dogs. Three (3) dogs were administered a compound via the intravenous (IV) route at 3 mg/kg and 2.5 mL/kg, and plasma was collected at 12 timepoints over a 24-hour period. Following a 7 days washout period, the same dogs were administered the same compound via PO at 10 mg/kg and 5 mL/kg, and plasma was collected at 12 timepoints over a 48-hour period.
as §1, §2, §3

[3] = Pharmacokinetic study in rats (IV, PO); format: in vivo, Sprague-Dawley rats; settings: Table B, Rat Plasma; for AUC(0-t) / half-life / AUC(0-inf) / Cmax: male, Sprague-Dawley; for AUC(0-inf): read-out: AUCINF—obs; for Cmax: read-out: Cmax (5 min)
Protocol: Pharmacokinetic studies were conducted to estimate plasma concentrations obtained after oral gavage (PO) and intravenous (IV) single administration of compounds administered to male Sprague-Dawley rats. Six (6) rats were administered for each compound, route and dose, and plasma was collected at 12 timepoints over a 24 hr period for IV, and 12 timepoints over a 48 hr period for PO. Note that plasma was collected from only 3 animals per timepoint (n=3 for timepoints up to 10 hours, and n=3 for timepoints from 16 h to end of study). Dosing volumes were 5 mL/kg for IV and 10 mL/kg for PO gavage. IV compounds for administration were in solutions, whereas PO compounds were in solution or suspension.
as §1, §2, §3

Structure (SMILES): O=C(N[C@H]1CC[C@@H](Oc2nc(N3CCOCC3)cc3ncccc23)CC1)c1ncccn1 [Compound 123, N-((1s,4s)-4-((7-Morpholino-1,6-naphthyridin-5-yl)oxy)cyclohexyl)pyrimidine-2-carboxamide]
- AUC—%Extrap—obs ([1]; Table A, IV, 3 mg/kg): 0.73%
- Cl_obs ([1]; Table A, IV, 3 mg/kg): 21.2632 mL/min/kg
- Vz_obs ([1]; Table A, IV, 3 mg/kg): 3.93714 L/kg
- AUC—%Extrap—obs ([1]; Table A, PO, 10 mg/kg): 6.92%
- Cl_obs ([1]; Table A, PO, 10 mg/kg): 32.236 mL/min/kg
- F ([1]; Table A, PO, 10 mg/kg): 62%
- Vz_obs ([1]; Table A, PO, 10 mg/kg): 9.80258 L/kg
- AUC(0-t) ([1]; Table A, IV, 3 mg/kg): 2330 ng·h/mL
- half-life ([1]; Table A, IV, 3 mg/kg): 2.14 h
- AUC(0-inf) ([1]; Table A, IV, 3 mg/kg): 2350 ng·h/mL
- Cmax ([1]; Table A, IV, 3 mg/kg): 3660 ng/mL
- AUC(0-t) ([1]; Table A, PO, 10 mg/kg): 4810 ng·h/mL
- half-life ([1]; Table A, PO, 10 mg/kg): 3.51 h
- AUC(0-inf) ([1]; Table A, PO, 10 mg/kg): 5170 ng·h/mL
- Cmax ([1]; Table A, PO, 10 mg/kg): 2380 ng/mL
- AUC—%Extrap—obs ([2]; IV, 3 mg/kg): 2.17%
- Cl_obs ([2]; IV, 3 mg/kg): 10.237 mL/min/kg
- Vz_obs ([2]; IV, 3 mg/kg): 4.4105 L/kg
- AUC—%Extrap—obs ([2]; PO, 10 mg/kg): 0.29%
- Cl_obs ([2]; PO, 10 mg/kg): 10.148 mL/min/kg
- F ([2]; PO, 10 mg/kg): 108%
- Vz_obs ([2]; PO, 10 mg/kg): 5.13768 L/kg
- AUC(0-t) ([2]; IV, 3 mg/kg): 4940 ng·h/mL
- Cmax at 5 min ([2]; IV, 3 mg/kg): 2470 ng/mL
- half-life ([2]; IV, 3 mg/kg): 5.2 h
- AUC(0-inf) ([2]; IV, 3 mg/kg): 5070 ng·h/mL
- AUC(0-t) ([2]; PO, 10 mg/kg): 17800 ng·h/mL
- Cmax at 5 min ([2]; PO, 10 mg/kg): 2970 ng/mL
- half-life ([2]; PO, 10 mg/kg): 6.03 h
- AUC(0-inf) ([2]; PO, 10 mg/kg): 17800 ng·h/mL
- AUC—%Extrap—obs ([3]; IV, 3 mg/kg): 0.48%
- Cl_obs ([3]; IV, 3 mg/kg): 50.8342 mL/min/kg
- Vz_obs ([3]; IV, 3 mg/kg): 4.33451 L/kg
- AUC—%Extrap—obs ([3]; PO, 3 mg/kg): 16.96%
- Cl_obs ([3]; PO, 3 mg/kg): 252.6873 mL/min/kg
- F ([3]; PO, 3 mg/kg): 17%
- Vz_obs ([3]; PO, 3 mg/kg): 85.17336 L/kg
- AUC—%Extrap—obs ([3]; PO, 10 mg/kg): 19.45%
- Cl_obs ([3]; PO, 10 mg/kg): 92.7505 mL/min/kg
- F ([3]; PO, 10 mg/kg): 44%
- Vz_obs ([3]; PO, 10 mg/kg): 34.17323 L/kg
- AUC—%Extrap—obs ([3]; PO, 30 mg/kg): 28.47%
- Cl_obs ([3]; PO, 30 mg/kg): 43.6063 mL/min/kg
- F ([3]; PO, 30 mg/kg): 84%
- Vz_obs ([3]; PO, 30 mg/kg): 19.76577 L/kg
- AUC(0-t) ([3]; IV, 3 mg/kg): 979 ng·h/mL
- half-life ([3]; IV, 3 mg/kg): 0.99 h
- AUC(0-inf) ([3]; IV, 3 mg/kg): 984 ng·h/mL
- Cmax ([3]; IV, 3 mg/kg): 1490 ng/mL
- AUC(0-t) ([3]; PO, 3 mg/kg): 164 ng·h/mL
- half-life ([3]; PO, 3 mg/kg): 3.89 h
- AUC(0-inf) ([3]; PO, 3 mg/kg): 198 ng·h/mL
- Cmax ([3]; PO, 3 mg/kg): 32.2 ng/mL
- AUC(0-t) ([3]; PO, 10 mg/kg): 1450 ng·h/mL
- half-life ([3]; PO, 10 mg/kg): 4.26 h
- AUC(0-inf) ([3]; PO, 10 mg/kg): 1800 ng·h/mL
- Cmax ([3]; PO, 10 mg/kg): 396 ng/mL
- AUC(0-t) ([3]; PO, 30 mg/kg): 8200 ng·h/mL
- half-life ([3]; PO, 30 mg/kg): 5.24 h
- AUC(0-inf) ([3]; PO, 30 mg/kg): 11500 ng·h/mL
- Cmax ([3]; PO, 30 mg/kg): 1570 ng/mL

Structure (SMILES): O=C(N[C@H]1CC[C@@H](Oc2nc(N3CCOCC3)cc3ncccc23)CC1)c1cc[nH]c1 [Compound 140, N-((1s,4s)-4-((7-morpholino-1,6-naphthyridin-5-yl)oxy)cyclohexyl)-1H-pyrrole-3-carboxamide]
- AUC—%Extrap—obs ([1]; Table D, IV, 3 mg/kg): 0.91%
- Cl_obs ([1]; Table D, IV, 3 mg/kg): 34.092 mL/min/kg
- Vz_obs ([1]; Table D, IV, 3 mg/kg): 3.32052 L/kg
- AUC—%Extrap—obs ([1]; Table D, PO, 10 mg/kg): 0.39%
- Cl_obs ([1]; Table D, PO, 10 mg/kg): 77.5327 mL/min/kg
- F ([1]; Table D, PO, 10 mg/kg): 44%
- Vz_obs ([1]; Table D, PO, 10 mg/kg): 18.51427 L/kg
- AUC(0-t) ([1]; Table D, IV, 3 mg/kg): 1450 ng·h/mL
- Cmax at 5 min ([1]; Table D, IV, 3 mg/kg): 2020 ng/mL
- half-life ([1]; Table D, IV, 3 mg/kg): 1.13 h
- AUC(0-inf) ([1]; Table D, IV, 3 mg/kg): 1470 ng·h/mL
- AUC(0-t) ([1]; Table D, PO, 10 mg/kg): 2140 ng·h/mL
- Cmax at 5 min ([1]; Table D, PO, 10 mg/kg): 1240 ng/mL
- half-life ([1]; Table D, PO, 10 mg/kg): 2.76 h
- AUC(0-inf) ([1]; Table D, PO, 10 mg/kg): 2150 ng·h/mL
